According to publication PMC7189608, “FaPAO5 regulates Spm/Spd levels as a signaling during strawberry fruit ripening” (Plant Direct, 2020):

Molecular target: T1, FaPAO5
T1 construct: 105 kDa fusion protein
Assay: isothermal titration calorimetry
Format: binding, Fragaria x ananassa
Conditions: pH 7.4, 30 °C, 200 mM NaCl, 20 mM Tris, 0.5 mM EDTA, 10 mM maltose; MBP fusion protein (10 µM in Methods, 20 µM in Results); ligand 100 µM
Text: isothermal titration calorimetry on FaPAO5 | the binding of FaPAO5 to Spm and Spd followed a saturation kinetics curve

Compound	Kd
NCCCCNCCCN [Spd]	290 nM
NCCCNCCCCNCCCN [Spm]	210 nM
